Data on 6 compounds can be found in patent publication US20170312282A1, “TYROSINE KINASE INHIBITOR FORMULATIONS FOR THE TREATMENT OF MAST CELL-MEDIATED INFLAMMATORY DISEASES AND METHODS OF USE THEREOF” (The Board of Trustees of the Leland Stanford Junior …, priority 2016, published 2017).

Data set [1] relates to FLT3, KIT, MET, RET, VEGFR2. The note with it: one bound for FLT3, KIT; cited from earlier work.
The test system of another data set is DMM-induced OA. Nature of the data set: Systemic imatinib in DMM model of OA (Example 5). The class given is in vivo, mice. The note with it: 33 mg/kg/day or 100 mg/kg, orally twice-daily for 12 weeks starting one day after DMM surgery.
A further data set has as its system ABL, KIT, PDGFRs, DDRs. The note with it: read-out: IC50 (nM/L), one bound for ABL; cited from earlier work.
The next data set has as its system allergic rhinorrhea. As to conditions: intranasal dosing; cited from earlier work.
The subject of another data set is allergic rhinitis. The note with it: phase II clinical trial for allergic rhinitis; cited from earlier work.
Data set [2] deals with tie2, pdgfrs, ret, kit, B-RAF. As to conditions: one bound for tie2, pdgfrs; cited from earlier work.
Data set [3] has as its system VEGFRs, PDGFRs, B-RAF, MEK, ERK, c-FMS. The note with it: one bound for VEGFRs; cited from earlier work.

Take `COc1cc2nccc(Oc3ccc(NC(=O)C4(C(=O)Nc5ccc(F)cc5)CC4)cc3)c2cc1OC` [Cabozatinib]: the IC50 in data set [1] was less than 15 nM. On to `Cc1ccc(NC(=O)c2ccc(CN3CCN(C)CC3)cc2)cc1Nc1nccc(-c2cccnc2)n1` [Imatinib], for which, in the data set on DMM-induced OA, the “development of DMM-induced OA (histological scores of cartilage damage, synovitis and osteophyte formation)” value is on record as “prevented the development of DMM-induced OA”. For `Cc1cn(-c2cc(NC(=O)c3ccc(C)c(Nc4nccc(-c5cccnc5)n4)c3)cc(C(F)(F)F)c2)cn1` [Nilotinib], the IC50 in the data set on ABL, KIT, PDGFRs, DDRs was […]. With `Oc1cccc(Nc2ncc(F)c(Nc3cccc(O)c3)n2)c1` [R112], in the data set on allergic rhinorrhea, the allergic rhinorrhea entry is “effectively improved allergic rhinorrhea” and the safety entry is “safe”. Also, the efficacy versus placebo result in the data set with allergic rhinitis was “lack of efficacy versus placebo”.

Regarding `CNC(=O)c1cc(Oc2ccc(NC(=O)Nc3ccc(Cl)c(C(F)(F)F)c3)c(F)c2)ccn1` [Regorafenib], in data set [2], the IC50 was […].

`CNC(=O)c1cc(Oc2ccc(NC(=O)Nc3ccc(Cl)c(C(F)(F)F)c3)cc2)ccn1` [Sorafenib]: in data set [3], the IC50 is less than 100 nM.
